Measured values from PMC4450297, “Screening Active Compounds from Garcinia Species Native to China Reveals Novel Compounds Targeting the STAT/JAK Signaling Pathway” (BioMed Research International, 2015).
Read-outs that look alike come from different tables or passages of the source.

Columns and labels:
[1] = tested on: PUMA, NOXA, and CDIP mRNA in NCI-H1650 cells; assay: Quantitative real-time PCR of proapoptotic genes; assay type: cell-based, human; settings: 24-hour treatment
Text: The primers for PUMA (Cat. Hs00248075_m1), CDIP1 (Cat. Hs00924663_g1), and NOXA (Cat. Hs00560402_m1) for quantitative PCR were all purchased from Invitrogen. Dissociation curves and no-cDNA controls were generated for each primer pair to detect nonspecific amplification. A standard curve was generated for each primer pair as well as for glyceraldehyde-3-phosphate dehydrogenase (GAPDH; using in this case a predeveloped TaqMan assay), to which gene expression levels were normalized by a comparative threshold cycle method. Finally, a ratio was calculated comparing normalized gene expression values in treated versus untreated controls for each sample.
Total RNA was extracted from the NCI-H1650 cell line using the RNeasy kit (Qiagen). cDNA synthesis was performed using Superscript II RNase H– reverse transcriptase (Life Technologies, Bethesda, MD, USA) to transcribe 2 μg of total RNA primed with 1 μL of 500 μg/mL random hexamers. For quantitative real-time PCR analysis, an ABI TaqMan assay (HS00378697) was used in an ABI 7300 system with the following profile: 95°C for 10 min, followed by 40 cycles of 15 s at 95°C and 60 s at 60°C. PUMA, NOXA, and CDIP1 mRNA levels were normalized by comparison to GAPDH RNA levels in the same samples. Each measurement was performed at least in duplicate.

NCI-H1650 cells = assay: Apoptosis induction assay (Cell Death Detection ELISA); assay type: cell-based, human; settings: for effect of Z-VAD cotreatment on compound-induced oligonucleosomal fragmentation: NCI-H1650 cells, Z-VAD 10 μmol/L; for NCI-H1650 cells that underwent rapid apoptosis: after 8 h
Description: Apoptosis induction assays were performed after 8 or 24 h incubation with compounds using the Cell Death Detection ELISA assay (Roche). Apoptosis induction is represented relative to DMSO-treated controls (set at 1.0). Error bars denote the SEM.

JAK1 = biological target: T1, JAK1 (Homo sapiens, UniProt P23458); assay: Microfluidic mobility shift enzyme assay; assay type: biochemical
T1 construct: purchased Carna Bioscience, Inc. (Japan)
T1 sequence (P23458 whole entry): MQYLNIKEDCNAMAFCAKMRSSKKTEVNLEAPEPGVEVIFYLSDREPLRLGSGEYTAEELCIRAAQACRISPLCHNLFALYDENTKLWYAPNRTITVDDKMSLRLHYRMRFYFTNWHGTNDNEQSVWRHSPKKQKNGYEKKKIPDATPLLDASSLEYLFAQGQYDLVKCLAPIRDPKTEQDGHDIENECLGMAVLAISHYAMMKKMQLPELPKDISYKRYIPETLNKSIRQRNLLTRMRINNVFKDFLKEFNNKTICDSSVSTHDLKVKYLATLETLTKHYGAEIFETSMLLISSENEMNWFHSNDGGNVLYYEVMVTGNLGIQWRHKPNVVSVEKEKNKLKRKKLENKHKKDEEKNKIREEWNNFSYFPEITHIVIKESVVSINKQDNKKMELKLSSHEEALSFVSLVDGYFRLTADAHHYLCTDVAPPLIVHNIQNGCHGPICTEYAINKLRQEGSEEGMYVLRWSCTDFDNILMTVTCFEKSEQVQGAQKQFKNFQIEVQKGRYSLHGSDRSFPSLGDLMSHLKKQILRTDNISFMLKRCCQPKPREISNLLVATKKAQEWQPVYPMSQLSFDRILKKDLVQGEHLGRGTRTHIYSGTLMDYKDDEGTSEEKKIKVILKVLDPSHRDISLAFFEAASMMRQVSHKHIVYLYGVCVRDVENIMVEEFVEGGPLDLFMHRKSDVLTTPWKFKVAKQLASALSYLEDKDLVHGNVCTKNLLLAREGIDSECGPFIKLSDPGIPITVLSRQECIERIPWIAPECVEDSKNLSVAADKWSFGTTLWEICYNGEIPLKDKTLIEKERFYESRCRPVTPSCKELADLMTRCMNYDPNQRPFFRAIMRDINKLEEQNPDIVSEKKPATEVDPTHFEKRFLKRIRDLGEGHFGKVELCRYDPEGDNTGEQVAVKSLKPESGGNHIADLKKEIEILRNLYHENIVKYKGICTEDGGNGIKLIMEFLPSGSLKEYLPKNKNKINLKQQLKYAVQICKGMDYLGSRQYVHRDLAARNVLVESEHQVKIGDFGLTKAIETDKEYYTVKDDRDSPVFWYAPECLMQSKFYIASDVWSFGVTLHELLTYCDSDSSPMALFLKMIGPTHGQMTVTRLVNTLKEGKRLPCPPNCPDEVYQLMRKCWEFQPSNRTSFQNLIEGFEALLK
Description: (§1) The microfluidic mobility shift enzyme assay was performed in an on-chip incubation mode on a Caliper LabChip 2000 Drug Discovery System (Caliper Life Sciences, Hopkinton, MA). The extent of inhibition by the compounds is measured directly by quantifying the level of both unphosphorylated peptide substrate and phosphorylated product after electrophoretic separation using Caliper's LabChip assay technology. To evaluate the compounds for their target and the mechanism by which the compound affects JAK enzyme activity, the compounds were tested against JAK family kinases (JAK1, JAK2, JAK3, and Tyk2) with the Caliper microfluidic mobility-shift platform. The JAK family kinase enzymes and the FAM-labeled substrates were purchased from Carna Bioscience, Inc. (Japan) and Caliper Bioscience (US), respectively.
(§2) For JAK kinase activity measurement, the test compounds were diluted freshly with assay buffer (100 mM HEP ES, 10 mM MgCl2, 1.5 mM betaine, 0.015% Brij, and 25 mM β-glycerophosphate) and added to 384-well plates. FAM-labeled peptide substrate and ATP in assay buffer were added to the wells. After that, JAK enzymes prepared in assay buffer were also added to the wells and mixed to start the reaction. After a period of incubation at room temperature, the reaction was stopped by stop solution (500 mM EDTA). Finally, the plate was put on a Caliper LabChip 2000 system and a droplet of the reaction mixture was applied for electrophoretic separation in the chips of the machine. The enzyme conversion data then was read out for analysis.

JAK2 = biological target: T2, JAK2 (Homo sapiens, UniProt O60674); assay: Microfluidic mobility shift enzyme assay; assay type: biochemical
T2 construct: purchased Carna Bioscience, Inc. (Japan)
T2 sequence (O60674 whole entry): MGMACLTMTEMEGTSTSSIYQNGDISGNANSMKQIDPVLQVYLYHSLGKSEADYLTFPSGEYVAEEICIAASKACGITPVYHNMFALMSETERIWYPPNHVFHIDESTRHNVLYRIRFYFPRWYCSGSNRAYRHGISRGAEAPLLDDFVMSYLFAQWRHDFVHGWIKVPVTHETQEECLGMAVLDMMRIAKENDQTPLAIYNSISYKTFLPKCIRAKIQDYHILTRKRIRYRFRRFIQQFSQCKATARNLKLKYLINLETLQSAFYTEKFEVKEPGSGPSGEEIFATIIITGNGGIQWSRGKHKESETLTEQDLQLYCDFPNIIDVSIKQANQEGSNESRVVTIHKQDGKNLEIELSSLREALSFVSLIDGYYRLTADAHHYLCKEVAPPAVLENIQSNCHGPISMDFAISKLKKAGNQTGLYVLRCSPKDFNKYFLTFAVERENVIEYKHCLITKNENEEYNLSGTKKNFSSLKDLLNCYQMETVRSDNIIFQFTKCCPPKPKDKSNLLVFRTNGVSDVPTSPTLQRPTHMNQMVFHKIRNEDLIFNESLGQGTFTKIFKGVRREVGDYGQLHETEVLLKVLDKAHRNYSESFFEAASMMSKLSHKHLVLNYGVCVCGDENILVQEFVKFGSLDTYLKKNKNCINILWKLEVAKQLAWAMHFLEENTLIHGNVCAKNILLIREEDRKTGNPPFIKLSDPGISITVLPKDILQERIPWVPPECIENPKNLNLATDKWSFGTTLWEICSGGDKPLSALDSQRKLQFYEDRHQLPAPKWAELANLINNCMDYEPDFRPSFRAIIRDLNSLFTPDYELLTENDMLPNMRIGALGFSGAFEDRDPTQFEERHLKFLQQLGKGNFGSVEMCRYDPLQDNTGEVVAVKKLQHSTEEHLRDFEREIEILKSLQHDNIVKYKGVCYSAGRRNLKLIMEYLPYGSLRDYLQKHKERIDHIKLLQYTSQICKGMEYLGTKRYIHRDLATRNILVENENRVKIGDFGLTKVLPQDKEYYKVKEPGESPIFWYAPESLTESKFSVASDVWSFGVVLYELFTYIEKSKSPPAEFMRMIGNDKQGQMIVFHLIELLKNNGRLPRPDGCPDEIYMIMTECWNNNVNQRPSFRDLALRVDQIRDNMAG
Description: as §1, §2

Tyk2 = biological target: T3, Tyk2 (Homo sapiens, UniProt P29597); assay: Microfluidic mobility shift enzyme assay; assay type: biochemical
T3 construct: purchased Carna Bioscience, Inc. (Japan)
T3 sequence (P29597 whole entry): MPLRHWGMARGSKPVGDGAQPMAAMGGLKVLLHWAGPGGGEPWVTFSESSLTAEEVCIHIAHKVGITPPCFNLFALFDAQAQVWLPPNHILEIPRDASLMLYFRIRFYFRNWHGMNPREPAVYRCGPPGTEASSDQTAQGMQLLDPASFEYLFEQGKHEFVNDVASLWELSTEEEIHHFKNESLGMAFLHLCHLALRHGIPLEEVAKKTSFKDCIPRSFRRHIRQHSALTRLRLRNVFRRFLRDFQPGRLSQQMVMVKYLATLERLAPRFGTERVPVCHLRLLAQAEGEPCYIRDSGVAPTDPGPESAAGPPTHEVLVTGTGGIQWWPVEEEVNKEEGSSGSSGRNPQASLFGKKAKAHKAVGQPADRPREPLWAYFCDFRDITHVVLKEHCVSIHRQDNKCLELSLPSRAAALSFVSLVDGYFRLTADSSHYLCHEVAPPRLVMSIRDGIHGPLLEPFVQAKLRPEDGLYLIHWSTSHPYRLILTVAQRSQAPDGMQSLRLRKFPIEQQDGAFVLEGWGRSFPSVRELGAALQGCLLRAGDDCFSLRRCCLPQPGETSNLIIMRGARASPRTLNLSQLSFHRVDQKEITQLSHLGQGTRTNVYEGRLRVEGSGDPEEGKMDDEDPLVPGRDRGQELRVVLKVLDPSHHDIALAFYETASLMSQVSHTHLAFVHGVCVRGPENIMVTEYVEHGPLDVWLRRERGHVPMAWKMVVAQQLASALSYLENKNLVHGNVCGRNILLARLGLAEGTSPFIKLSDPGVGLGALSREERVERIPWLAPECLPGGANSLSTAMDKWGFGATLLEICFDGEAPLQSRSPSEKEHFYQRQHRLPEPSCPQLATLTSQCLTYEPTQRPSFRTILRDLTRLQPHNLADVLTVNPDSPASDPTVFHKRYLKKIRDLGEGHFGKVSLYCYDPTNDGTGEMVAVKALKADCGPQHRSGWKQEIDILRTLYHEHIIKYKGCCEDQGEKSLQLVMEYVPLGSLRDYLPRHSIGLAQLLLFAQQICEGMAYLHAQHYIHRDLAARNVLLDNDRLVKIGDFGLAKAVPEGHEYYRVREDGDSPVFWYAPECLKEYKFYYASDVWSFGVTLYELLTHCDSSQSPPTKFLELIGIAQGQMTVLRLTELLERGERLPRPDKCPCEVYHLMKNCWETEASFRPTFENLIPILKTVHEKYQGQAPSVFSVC
Description: as §1, §2

JAK3 = biological target: T4, JAK3 (Homo sapiens, UniProt P52333); assay: Microfluidic mobility shift enzyme assay; assay type: biochemical
T4 construct: purchased Carna Bioscience, Inc. (Japan)
T4 sequence (P52333 1-1124): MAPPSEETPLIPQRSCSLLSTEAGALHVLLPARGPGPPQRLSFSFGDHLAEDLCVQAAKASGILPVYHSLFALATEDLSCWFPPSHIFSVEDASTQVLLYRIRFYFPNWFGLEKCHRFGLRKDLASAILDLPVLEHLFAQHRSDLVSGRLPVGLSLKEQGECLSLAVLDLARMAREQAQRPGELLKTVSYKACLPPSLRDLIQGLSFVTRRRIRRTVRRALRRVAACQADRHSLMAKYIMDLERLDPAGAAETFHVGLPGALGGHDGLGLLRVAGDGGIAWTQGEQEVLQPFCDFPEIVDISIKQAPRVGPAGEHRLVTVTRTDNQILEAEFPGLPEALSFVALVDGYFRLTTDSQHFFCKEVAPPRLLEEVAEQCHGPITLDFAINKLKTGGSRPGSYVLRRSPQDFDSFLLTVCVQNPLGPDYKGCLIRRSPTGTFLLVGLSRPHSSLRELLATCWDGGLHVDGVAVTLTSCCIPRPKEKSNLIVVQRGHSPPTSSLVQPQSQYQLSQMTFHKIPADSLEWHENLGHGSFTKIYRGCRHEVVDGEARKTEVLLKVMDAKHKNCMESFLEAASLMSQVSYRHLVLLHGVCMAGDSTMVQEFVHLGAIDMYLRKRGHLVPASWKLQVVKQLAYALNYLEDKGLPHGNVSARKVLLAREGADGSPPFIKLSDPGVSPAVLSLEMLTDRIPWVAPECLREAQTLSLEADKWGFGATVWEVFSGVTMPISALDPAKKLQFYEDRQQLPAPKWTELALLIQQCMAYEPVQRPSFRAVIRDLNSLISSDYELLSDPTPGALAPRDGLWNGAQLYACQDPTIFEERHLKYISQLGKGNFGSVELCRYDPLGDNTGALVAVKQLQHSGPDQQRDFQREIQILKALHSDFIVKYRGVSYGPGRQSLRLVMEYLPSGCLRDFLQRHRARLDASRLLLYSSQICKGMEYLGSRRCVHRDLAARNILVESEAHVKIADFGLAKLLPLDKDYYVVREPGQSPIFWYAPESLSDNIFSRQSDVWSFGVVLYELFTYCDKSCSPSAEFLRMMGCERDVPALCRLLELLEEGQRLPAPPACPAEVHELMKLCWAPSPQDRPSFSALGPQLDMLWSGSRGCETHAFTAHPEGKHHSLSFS
Description: as §1, §2

Row | SMILES | induction of CIDP mRNA [1] | induction of NOXA mRNA [1] | induction of PUMA mRNA [1] | effect of Z-VAD cotreatment on compound-induced oligonucleosomal fragmentation (NCI-H1650 cells) | apoptosis induction (oligonucleosomal fragmentation) (NCI-H1650 cells; after 24 h) | IC50 (JAK1) [µM] | inhibition of JAK1 kinase activity (in words) (JAK1) | inhibition of JAK2 kinase activity (in words) (JAK2) | IC50 (JAK2; IC50, JAK2 enzyme) [µM] | IC50 (Tyk2) [µM] | inhibition of Tyk2 kinase activity (in words) (Tyk2) | inhibition of JAK3 kinase activity (in words) (JAK3) | IC50 (JAK3; IC50, JAK3 enzyme) [µM] | NCI-H1650 cells that underwent rapid apoptosis (NCI-H1650 cells) [%] | IC50 (JAK1; JAK1 enzyme, read-out: IC50) [µM] | difference in IC50s between JAK2 and Tyk2 (JAK2) [fold] | IC50 (JAK2; JAK2 enzyme, read-out: IC50) [µM] | IC50 (Tyk2; Tyk2 enzyme, read-out: IC50) [µM] | IC50 (JAK3; JAK3 enzyme, read-out: IC50) [µM]
1 | CC(C)=CCC/C(C)=C/Cc1c(O)c(CC=C(C)C)c2c(c1O)C(=O)C1=C[C@@H]3C[C@H]4C(C)(C)O[C@@](C/C=C(\C)C(=O)O)(C3=O)[C@@]14O2 [GB63] | no effect | no effect | no effect | – | – | – | – | – | – | – | – | – | – | – | – | – | – | – | –
2 | CC(C)=CCC/C(C)=C/Cc1c(O)c(CC=C(C)C)c2c(c1O)C(=O)C1=C[C@@H]3C[C@H]4C(C)(C)O[C@@](CC=C(C)C)(C3=O)[C@@]14O2 [GB32] | no effect | no effect | no effect | completely suppressed | significant apoptosis | > 40 | no effect | minor inhibition | 37.3 ± 6.9 | > 40 | no effect | minor inhibition | 17.5 ± 1.5 | – | – | – | – | – | –
3 | CC(C)=CCC/C(C)=C/Cc1c(O)c(CC=C(C)C)c2c(c1O)C(=O)C1=C[C@@H]3C[C@H]4C(C)(C)O[C@@](C/C=C(\C)C=O)(C3=O)[C@@]14O2 [GB49] | no effect | no effect | no effect | – | – | – | – | – | – | – | – | – | – | – | – | – | – | – | –
4 | CC(C)=CCC[C@@]1(C)C=Cc2c(O)c3c(c(C/C=C(\C)CO)c2O1)O[C@]12C(=C[C@@H]4C[C@H]1C(C)(C)O[C@@]2(C/C=C(/C)C(=O)O)C4=O)C3=O [GB40, 35-hydroxyepigambogic acid] | 2 fold | greater than 5 fold | 2 fold | completely suppressed | – | – | minor inhibitory effects | significantly inhibited | – | – | minor inhibitory effects | significantly inhibited | – | > 90 | 14.2 ± 0.4 | 10 | 1.4 ± 0.1 | 12.9 ± 0.9 | 3.2 ± 0.2
5 | CC(C)=CCC[C@@]1(C)C=Cc2c(O)c3c(c(CCC(C)(C)O)c2O1)O[C@]12C(=C[C@@H]4C[C@H]1C(C)(C)O[C@@]2(C/C=C(/C)C(=O)O)C4=O)C3=O [GB39, 33-hydroxyepigambogic acid] | 3 fold | greater than 5 fold | 3 fold | completely suppressed | – | – | minor inhibitory effects | significantly inhibited | – | – | minor inhibitory effects | significantly inhibited | – | > 90 | 12.2 ± 0.3 | 10 | 1.7 ± 0.1 | 13 ± 1.6 | 3.8 ± 0.3
